Test results: the supplement of paper PMC10307832

Legend:
Assay in all cases: relative viability (nuclei count vs DMSO), 5 days (fraction); higher = more cells survive
[1] = system: A-427
Procedure, shortened: (§1)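 After 5 days of treatment, lung cancer cells in 1536-well plates were fixed and stained in a single step (final 0.05% Triton X-100, 1% formaldehyde, 1 ug/ml Hoechst) and their nuclei counted on 4× images. Treatment had been applied by pin tool the day after seeding as one drug alone or as a fixed anchor-drug dose with five library-drug doses (not always all listed) in √10 steps. Relative viability is the nuclei count of treated wells divided by that of vehicle wells, and values are medians of duplicate plates.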

[2] = system: EMC-BAC-2
Procedure, shortened: as §1

[3] = system: HARA
Procedure, shortened: as §1

[4] = system: HOP-62
Procedure, shortened: as §1

[5] = system: LK-2
Procedure, shortened: as §1

[6] = system: LXF-289
Procedure, shortened: as §1

[7] = system: NCI-H1792
Procedure, shortened: as §1

[8] = system: NCI-H1944
Procedure, shortened: as §1

[9] = system: NCI-H1993
Procedure, shortened: as §1

[10] = system: NCI-H2009
Procedure, shortened: as §1

[11] = system: NCI-H2170
Procedure, shortened: as §1

[12] = system: NCI-H2228
Procedure, shortened: as §1

[13] = system: NCI-H3122
Procedure, shortened: as §1

[14] = system: NCI-H322M
Procedure, shortened: as §1

[15] = system: NCI-H522
Procedure, shortened: as §1

[16] = system: NCI-H596
Procedure, shortened: as §1

[17] = system: NCI-H727
Procedure, shortened: as §1

[18] = system: PC-3 [JPC-3]
Procedure, shortened: as §1

[19] = system: SK-MES-1
Procedure, shortened: as §1

[20] = system: SW 1573
Procedure, shortened: as §1

[21] = system: SW 900
Procedure, shortened: as §1

Molecule `CC(=O)O[C@@]12CO[C@@H]1C[C@H](O)[C@@]1(C)C(=O)[C@H](O)C3=C(C)[C@@H](OC(=O)[C@H](O)[C@@H](NC(=O)OC(C)(C)C)c4ccccc4)C[C@@](O)([C@@H](OC(=O)c4ccccc4)[C@H]21)C3(C)C` [Docetaxel] + CC(=O)Nc1cccc(-n2c(=O)n(C3CC3)c(=O)c3c(Nc4ccc(I)cc4F)n(C)c(=O)c(C)c32)c1 [Trametinib] (partner 0.02 µM) has a relative viability ([1]; first compound 0.0002 µM) of 0.765, a relative viability ([1]; first compound 0.000632 µM) of 0.775 and a relative viability ([1]; first compound 0.002 µM) of 0.552. It also gave a relative viability ([1]; first compound 0.006325 µM) of 0.388, a relative viability ([1]; first compound 0.02 µM) of 0.216 and a relative viability ([2]; first compound 0.0002 µM) of 0.874. The relative viability ([2]; first compound 0.000632 µM) was 0.76, the relative viability ([2]; first compound 0.002 µM) was 0.554 and the relative viability ([2]; first compound 0.006325 µM) was 0.476. It also gave a relative viability ([2]; first compound 0.02 µM) of 0.385, a relative viability ([3]; first compound 0.0002 µM) of 0.456 and a relative viability ([3]; first compound 0.000632 µM) of 0.155. It also gave a relative viability ([3]; first compound 0.002 µM) of 0.235, a relative viability ([3]; first compound 0.006325 µM) of 0.16 and a relative viability ([3]; first compound 0.02 µM) of 0.104. The relative viability ([4]; first compound 0.0002 µM) was 0.328, the relative viability ([4]; first compound 0.000632 µM) was 0.446 and the relative viability ([4]; first compound 0.002 µM) was 0.355. It also gave a relative viability ([4]; first compound 0.006325 µM) of 0.32, a relative viability ([5]; first compound 0.0002 µM) of 0.683 and a relative viability ([5]; first compound 0.000632 µM) of 0.528. It also gave a relative viability ([5]; first compound 0.002 µM) of 0.304, a relative viability ([5]; first compound 0.006325 µM) of 0.187 and a relative viability ([5]; first compound 0.02 µM) of 0.136. For the same molecule, the relative viability ([6]; first compound 0.0002 µM) was 0.648, the relative viability ([6]; first compound 0.000632 µM) was 0.673 and the relative viability ([6]; first compound 0.002 µM) was 0.335. It also gave a relative viability ([6]; first compound 0.006325 µM) of 0.18, a relative viability ([6]; first compound 0.02 µM) of 0.109 and a relative viability ([7]; first compound 0.0002 µM) of 0.377. For the same molecule, the relative viability ([7]; first compound 0.000632 µM) was 0.338, the relative viability ([7]; first compound 0.002 µM) was 0.31 and the relative viability ([7]; first compound 0.006325 µM) was 0.142. The relative viability ([7]; first compound 0.02 µM) was 0.0842, the relative viability ([8]; first compound 0.0002 µM) was 0.387 and the relative viability ([8]; first compound 0.000632 µM) was 0.371. For the same molecule, the relative viability ([8]; first compound 0.002 µM) was 0.294, the relative viability ([8]; first compound 0.006325 µM) was 0.241 and the relative viability ([8]; first compound 0.02 µM) was 0.118. The relative viability ([9]; first compound 0.0002 µM) was 0.504, the relative viability ([9]; first compound 0.000632 µM) was 0.578 and the relative viability ([9]; first compound 0.002 µM) was 0.546. It also gave a relative viability ([9]; first compound 0.006325 µM) of 0.481, a relative viability ([9]; first compound 0.02 µM) of 0.3 and a relative viability ([10]; first compound 0.0002 µM) of 0.273. The relative viability ([10]; first compound 0.000632 µM) was 0.312, the relative viability ([10]; first compound 0.002 µM) was 0.295 and the relative viability ([10]; first compound 0.006325 µM) was 0.233. The relative viability ([10]; first compound 0.02 µM) was 0.175, the relative viability ([11]; first compound 0.0002 µM) was 0.887 and the relative viability ([11]; first compound 0.000632 µM) was 0.848. It also gave a relative viability ([11]; first compound 0.002 µM) of 0.746, a relative viability ([11]; first compound 0.006325 µM) of 0.222 and a relative viability ([11]; first compound 0.02 µM) of 0.167. For the same molecule, the relative viability ([12]; first compound 0.0002 µM) was 0.529, the relative viability ([12]; first compound 0.000632 µM) was 0.233 and the relative viability ([12]; first compound 0.002 µM) was 0.202. It also gave a relative viability ([12]; first compound 0.006325 µM) of 0.188, a relative viability ([12]; first compound 0.02 µM) of 0.121 and a relative viability ([13]; first compound 0.0002 µM) of 0.219. It also gave a relative viability ([13]; first compound 0.000632 µM) of 0.215, a relative viability ([13]; first compound 0.002 µM) of 0.194 and a relative viability ([13]; first compound 0.006325 µM) of 0.194. The relative viability ([13]; first compound 0.02 µM) was 0.128, the relative viability ([14]; first compound 0.0002 µM) was 0.554 and the relative viability ([14]; first compound 0.000632 µM) was 0.507. The relative viability ([14]; first compound 0.002 µM) was 0.441, the relative viability ([14]; first compound 0.006325 µM) was 0.524 and the relative viability ([14]; first compound 0.02 µM) was 0.441. The relative viability ([15]; first compound 0.0002 µM) was 0.79, the relative viability ([15]; first compound 0.000632 µM) was 0.723 and the relative viability ([15]; first compound 0.002 µM) was 0.676. The relative viability ([15]; first compound 0.006325 µM) was 0.42, the relative viability ([15]; first compound 0.02 µM) was 0.389 and the relative viability ([16]; first compound 0.0002 µM) was 0.807. The relative viability ([16]; first compound 0.000632 µM) was 0.997, the relative viability ([16]; first compound 0.002 µM) was 0.642 and the relative viability ([16]; first compound 0.006325 µM) was 0.555. It also gave a relative viability ([16]; first compound 0.02 µM) of 0.277, a relative viability ([17]; first compound 0.0002 µM) of 0.398 and a relative viability ([17]; first compound 0.000632 µM) of 0.379. It also gave a relative viability ([17]; first compound 0.002 µM) of 0.402, a relative viability ([17]; first compound 0.006325 µM) of 0.386 and a relative viability ([17]; first compound 0.02 µM) of 0.339. The relative viability ([18]; first compound 0.0002 µM) was 0.684, the relative viability ([18]; first compound 0.000632 µM) was 0.701 and the relative viability ([18]; first compound 0.002 µM) was 0.604. The relative viability ([18]; first compound 0.006325 µM) was 0.431, the relative viability ([18]; first compound 0.02 µM) was 0.279 and the relative viability ([19]; first compound 0.0002 µM) was 0.63. For the same molecule, the relative viability ([19]; first compound 0.000632 µM) was 0.758, the relative viability ([19]; first compound 0.002 µM) was 0.436 and the relative viability ([19]; first compound 0.006325 µM) was 0.313. It also gave a relative viability ([19]; first compound 0.02 µM) of 0.185, a relative viability ([20]; first compound 0.0002 µM) of 0.467 and a relative viability ([20]; first compound 0.000632 µM) of 0.307. The relative viability ([20]; first compound 0.002 µM) was 0.165, the relative viability ([20]; first compound 0.006325 µM) was 0.192 and the relative viability ([20]; first compound 0.02 µM) was 0.108. The relative viability ([21]; first compound 0.0002 µM) was 0.802, the relative viability ([21]; first compound 0.000632 µM) was 0.287 and the relative viability ([21]; first compound 0.002 µM) was 0.232. The relative viability ([21]; first compound 0.02 µM) was 0.163.
